Values quoted from earlier work, collected in patent US12683165B2, “Positive electrode additive for lithium secondary battery, positive electrode active material comprising same, positive electrode, and lithium secondary battery” (LG ENERGY SOLUTION, LTD., priority 2021, dated 2026).

Settings: ether-based or carbonate-based solvent of a lithium-sulfur secondary battery electrolyte solution

- dissolution in electrolyte solution solvent: tends to be dissolved
Compound: O=c1[nH]c(=O)c2c3ccc4cccc5c6cccc7ccc(c12)c(c76)c3c45 [BPI, benzo[ghi]peryleneimide]
